Reference: patent EP1388013B1, “COMPOSITIONS AND METHODS FOR THE USE OF FIBRONECTIN FRAGMENTS IN THE DIAGNOSIS OF CANCER” (THE REGENTS OF THE UNIVERSITY OF MICHIGAN, priority 2001, dated 2002)
No end group written: not given here.

Experiments:
[1] = system: metastatic DU-145 prostate cancer cells; test: SU-ECM invasion assay, DU-145 cells; format: cell-based, human; details: PHSRN sequence of fibronectin alone; Example 4
Method: (§1) Adult Strongylocentrotus purpuratus sea urchins were obtained from Pacific BioMarine, and their embryos were cultured to the early pluteus stage in artificial sea water at 15°C. SU-ECM were prepared from them by treatment with nonionic detergent and sterilized by dilution in the appropriate media.
[…] When appropriate, purified bovine plasma fibronectin (Sigma, St. Louis, Mo), purified 120 kDa chymotryptic fragment (Gibco BRL), PHSRN or PHSCN peptides (synthesized at the Biomedical Research Core Facilities of the University of Michigan), or GRGDSP or GRGESP peptides (Gibco BRL) were added to the resuspended cells prior to placement of the cells on SU-ECM. In each well of a plate used for an invasion assay, SU-ECM were placed in 0.5 ml of the appropriate medium, and 0.5ml of the resuspended cells dropped on their exterior surfaces. Invasion assays were incubated 1 to 16 hours prior to scoring. If some circumstances, invasion assays were fixed in phosphate-buffered saline (PBS) with 2% formaldehyde for 5 minutes at room temperature, then rinsed into PBS.
(§2) Invasion assays were coded and scored blindly by microscopic examination under phase contrast at 200- and 400-fold magnification. Each cell contacting an SU-ECM was scored for its position relative to the exterior or interior surfaces. A cell was judged to have invaded if it was located on an interior surface below the focal plane passing through the upper surface of the SU-ECM, but above the focal plane passing through its lower surface. The minimum viability of the cells in each assay was always ascertained at the time of assay by determining the fraction of spread, adherent cells on the bottom of each well scored.
(§3) An invasion frequency is defined as the fraction of cells in contact with basement membranes which were located in their interiors at the time of assay. Thus, an invasion frequency of 1 denotes invasion by 100% of the cells in contact with basement membranes. Invasion frequencies were determined multiple times for each cell type assayed. For each type of cell assayed the mean and standard deviation of the invasion frequencies were calculated.
(§4) The method of Example 4 is employed, with the addition of varying concentrations of the PHSCN peptide.
(§5) Thus, the procedure in Example 4 provides a method for determining the inhibitory potential of the PHSCN peptide by comparing the number of cell invasions in the presence of the PHSCN peptide, with the number of cell invasions in the absence of the PHSCN peptide.
In this example, in vitro invasion of cancer cells into substrates is inhibited with peptides that have been chemically modified with protecting groups and peptides having protecting groups as well as the modification wherein an L-amino acid has been replaced with the D-isomer. PHSCN peptide, blocked PHSCN peptide, and blocked PHSCN peptide with a D-cysteine instead of the L-isomer, were tested (Figure 4A, 4B).
In this example, in vitro invasion of cancer cells into substrates is inhibited with non-peptide mimetics in comparison with chemically modified peptides (on a molar basis). The peptides of Example 10 (i.e. peptides chemically modified with protecting groups and peptides having protecting groups as well as the modification wherein an L-amino acid has been replaced with the D-isomer) were compared with the non-peptide mimetics DL-N-Acetylhomocysteinethiolactone, Thiobutyrolactone, and Mercaptopropionic acid, in order to investigate the structure activity relationship for invasion inhibition by interaction with the PHSRN-binding pocket of the α5β1 fibronectin receptor (Figure 7)

[2] = system: Mouse muscle satellite cells; test: SU-ECM invasion assay, muscle satellite cells; format: cell-based; details: 1 microgram per ml, presence or absence of serum; Figure 13
Excerpt: (§6) In one example cells for the invasion assay are harvested by rinsing in Hanks' balanced salt solution, followed by brief treatment with 0.25% trypsin, 0.02% EDTA, and pelleting and resuspension in the appropriate medium with or without 5% FCS at a density of about 50,000 cells per ml. When appropriate, purified bovine plasma fibronectin (from Sigma, St. Louis, Mo), purified 120 kDa chymotryptic fragment (Gibco BRL) or PHSRN peptides (synthesized at the Biomedical Research Core Facilities of the University of Michigan) are added to the resuspended cells prior to placement of the cells on SU-ECM. […]
(§7) Invasion assays are coded and scored blindly by microscopic examination under phase contrast at 200- and 400-fold magnification. Each cell contacting an SU-ECM is scored for its position relative to the exterior or interior surfaces. […] The minimum viability of the cells in each assay is always ascertained at the time of assay by determining the fraction of spread, adherent cells on the bottom of each well scored.
(§8) An invasion frequency is defined as the fraction of cells in contact with basement membranes which are located in their interiors at the time of assay. […] Invasion frequencies are determined multiple times for each cell type assayed. For each type of cell assayed the mean and standard deviation of the invasion frequencies were calculated. […]

[3] = system: Normal neonatal keratinocytes; test: SU-ECM invasion assay, keratinocytes; format: cell-based; details: in the presence of serum, Figure 11
Excerpt: as §6, §7, §8

[4] = system: metastatic SUM-52 PE breast cancer cells; test: SU-ECM invasion assay, SUM-52 PE cells; format: cell-based, human; details: PHSRN sequence of fibronectin alone; Example 4
Method: as §1
Cells were harvested by rinsing in Hanks balanced salt solution, followed by brief treatment with 0.25% trypsin, 0.02% EDTA, and pelleting and resuspension in the appropriate medium with or without 5% FCS at a density of about 50,000 cells per ml. When appropriate, purified bovine plasma fibronectin (Sigma, St. Louis, Mo), purified 120 kDa chymotryptic fragment (Gibco BRL), PHSRN or PHSCN peptides (synthesized at the Biomedical Research Core Facilities of the University of Michigan), or GRGDSP or GRGESP peptides (Gibco BRL) were added to the resuspended cells prior to placement of the cells on SU-ECM. In each well of a plate used for an invasion assay, SU-ECM were placed in 0.5 ml of the appropriate medium, and 0.5ml of the resuspended cells dropped on their exterior surfaces. Invasion assays were incubated 1 to 16 hours prior to scoring. If some circumstances, invasion assays were fixed in phosphate-buffered saline (PBS) with 2% formaldehyde for 5 minutes at room temperature, then rinsed into PBS.
as §2, §3, §4, §5

PHSRN [PHSRN]
induction of DU-145 cell invasion of SU-ECM [1]: induced to invade
induction of SU-ECM invasion by muscle satellite cells [2]: induced the invasion
maximal invasion percentages for keratinocytes [3]: about 20%
induction of SUM-52 cell invasion of SU-ECM [4]: induced to invade
